Assay results reported in US7205002B2, “Method of making, and the use of cytotoxic agents containing elemental selenium” (MCW Research Foundation, Inc., priority 2002, dated 2007).
Where two headings read alike, the source gives them in different places. * marks the point of attachment. Cbz = O=C(OCc1ccccc1)*; CH2F = FC*

Assays:
[1] = system: normal murine granulocyte/macrophage progenitors (mCFU-GM); assay: Surviving fraction after 45 min exposure, in vitro clonal assay; format: cell-based; details: 10 μg/ml
Description: (§1) Cytotoxic Se(0)-protein conjugates were generated by exposing alpha-medium supplemented with fetal bovine serum (10%) and selenomerocyanine photosensitizer MC54 (26 μM) to cool white fluorescent light (fluence rate: 27 W/m^2) for 60 min. Wild-type L1210 leukemia cells, melphalan-resistant mutant L1210/L-PAM1 cells, or normal murine granulocyte/macrophage progenitors (mCFU-GM) (10^6/ml) were suspended either in cytotoxic conjugates or in alpha-medium supplemented with 4-HC (10 μg/ml) and incubated for 45 min at 37° C. Treatment conditions were selected to achieve a similar recovery of normal murine hematopoietic progenitor cells (mCFU-GM). Cells were washed free of excess conjugates or drug, and surviving fractions were determined by in vitro clonal assay.

[2] = system: Wild-type L1210 leukemia cells; assay: as above; format: cell-based, murine; details: 10 μg/ml
Description: as §1

[3] = system: melphalan-resistant mutant L1210/L-PAM1 cells; assay: as above; format: cell-based, murine; details: 10 μg/ml
Description: as §1

[4] = system: L1210 leukemia cells; assay: Cytotoxic activity of conjugates formed by dye photoproducts and serum (lipo)proteins, in vitro clonal assay; format: cell-based, murine
Description: The mixtures were exposed to white light (27 W/m^2) for 60 min as deescribed above. […] To assess cytotoxic activity, cytotoxic conjugates were made isotonic by the addition of an appropriate volume of double-concentrated alpha-medium and incubated with L1210 leukemia cells for 60 min at 37° C. The surviving fraction of in vitro clonogenic leukemia cells was determined by in vitro clonal assay as described in Sieber, F. et al., 1984, which is incorporated by reference in its entirety. […] The fluorescence yield of fluorescent photoproduct-albumin conjugates was determined with a Hitachi F4500 fluorescence spectrophotometer. All samples were serially diluted with buffer to rule out artifacts due to self-quenching. In vitro clonal assays of L1210 murine leukemia cells were used to assess cytotoxic activity.

[5] = system: tumor cells; assay: Interactions of conjugates with ionizing radiation and standard chemotherapeutic agents; details: 30 min pretreatment, nontoxic 3 mg/ml
Description: Alternatively, 5 or 6 doses of conjugates were used in combination with one or two doses of a drug. Depending on the combination, the two agents were applied either sequentially or simultaneously. […] For each combination, two or more target cells were selected from the following panel of tumor cell lines: L1210 and HL-60/ADR leukemia cells, PC3 and DU145 prostate cancer cells, H69 lung cancer cells, Mm5MT, MDA-MB-23 1, MDA-MB-435 and C1271 breast cancer cells, and SK-ES-1 Ewing's sarcoma cells.

[6] = system: DU145 prostate cancer cells; assay: Cytotoxicity of conjugates alone or in combination; format: cell-based, human
Description: The study was conducted with DU145 human prostate cancer cells. The protein source was fetal bovine serum, and the data points are means of 4 plates±SE.

[7] = system: PC3 prostate cancer cells; assay: Cytotoxicity of conjugates in combination; format: cell-based
[8] = system: MDA-MB-435 breast cancer cells; assay: Cytotoxicity of conjugates in combination; format: cell-based, human; details: 0.5 mM; 20 hours
[9] = system: caspase activity in L1210 leukemia cells; assay: Caspase Detection Kit (FITC-VAD-FMK) with specific peptide inhibitors; format: cell-based, murine; details: inhibitor 0.1 mM, 37° C., 1 hour
Description: Conjugates were derived from MC56 to avoid a spectral interference with the fluorescent caspase substrate. The protein source was fetal bovine serum. Caspase inhibitors were used as recommended by the manufacturer (R&D Systems). That is, each sample contained 10^6 cells, and the final concentration of inhibitors was 0.1 mM. Incubation was at 37° C. for 1 hour. […] In FIG. 12, the “Z-” prefix and the “-FMK” suffix are omitted because of space limitations.
We have used the Oncogene (San Diego, Calif.) Caspase Detection Kit to monitor caspase activity in L1210 leukemia cells after exposure to cytotoxic Se(0)-protein conjugates. The kit uses a fluorescent substrate (FITC-VAD-FMK; a conjugate of fluoresceinisothiocyanate with a fluoromethylketone-derivaticed short peptide) that detects a broad range of caspases. When FITC-VAD-FMK is used in conjunction with non-cytotoxic concentrations of specific peptide inhibitors (R&D Systems, Minneapolis, Minn.), the inhibition of the fluorescent signal is directly proportional to the contribution of the respective caspases to the overall signal. […] Caspases 2, 4 and 9 show moderate activation whereas caspases 1, 3, 6 and 8 show little or no activity. […]

[10] = in vivo; cited from earlier work
[11] = system: female B6D2F1 mice; assay: Acute systemic toxicity, intraperitoneal injection; format: in vivo; details: MC54 26 μM with equimolar bovine serum albumin; 1-ml i.p. injection on 1 to 5 consecutive days
Description: Acute Systemic Toxicity of Photoproduct-Protein Conjugates in Mice: In an initial acute toxicity study, groups of 5 female B6D2F1 mice were injected intraperitoneally with photoproduct-protein conjugates. The photoproduct-protein conjugates were generated by photobleaching the selenomerocyanine MC54 (26 μM) in the presence of an equimolar concentration of bovine serum albumin. Group 1 received one 1-ml intraperitoneal injection of this conjugate. Groups 2 through 5 received the same injection of conjugates on 2, 3, 4, or 5 consecutive days, respectively.
The second toxicity experiment used conjugates that had been prepared with a dye-to-protein ratio of 5:1. Since MC54 was added from stock solutions in ethanol, the mice of the second series were exposed to 5-fold higher doses of ethanol.

With `O=P1(N(CCCl)CCCl)NC(OO)CCO1` (stereo not shown) [Dye 4-HC, 4-Hydroperoxycyclophosphamide] the “Surviving Fraction” value [1] was 0.0088 ± 0.0025, the “Surviving Fraction” value [2] was 0.0460 ± 0.0043 and the “Surviving Fraction” value [3] was 0.2636 ± 0.0074.
For `CCO` [Ethanol], the “Cytotoxic Activity” value ([4]; MC54-derived photoproducts with the given solvent/protein) was “no”.
With `CCCCN1C(=O)C(=C/C=C/C=C2\Oc3ccccc3N2CCCS(=O)(=O)[O-])C(=O)N(CCCC)C1=S.[Na+]` [MC540] the “Cytotoxic Activity” value [4] was “no”.
For `NCCCNCCSP(=O)(O)O` [amifostine], the “Effect of pretreatment on response to cytotoxic conjugates” value [5] was “sensitized tumor cells to cytotoxic conjugates”.
For `CCCCS(=N)(=O)CCC(N)C(=O)O` (stereo not shown) [buthionine sulfoximine], the “Effect of pretreatment on response to conjugates” value (shortened to “Effect … to conjugates”) ([6]; 0.5 mM, 20 hours) was “improved the response”, the “Effect … to conjugates” value ([7]; 0.5 mM, 20 hours) was “little or no effect” and the “Effect … to conjugates” value [8] was “little or no effect”.
In the case of `N.N.[Cl][Pt][Cl]` [cisplatin], the “Antitumor effect, sequential exposure with conjugates” value ([6]; sequential exposure) is reported as “additive” and the “Antitumor effect, sequential exposure with conjugates” value ([7]; sequential exposure) is reported as “additive”.
In the case of “Bovine serum albumin: carrier protein for conjugates with MC54-derived photoproducts”, the “Cytotoxic Activity” value [4] is reported as “yes”.
In the case of “Carboxymethylated bovine serum albumin: commercial product from Sigma Chemical Co.”, the “Cytotoxic Activity” value [4] is reported as “no”.
For Cbz-Val-Ala-Asp-CH2F, the “Inhibition of the fluorescent caspase signal” value [9] was “reduced the fluorescence signal more than any of the specific inhibitors”.
In the case of Fetal bovine serum, the “Cytotoxic Activity” value [4] is reported as “yes”.
For albumin, the “Cytotoxicity of conjugates by carrier (lipo)protein” value [4] is listed as “more cytotoxic than conjugates formed by HDL” and the half-life [10] is listed as “approximately 19 days”.
In the case of “photoproduct-protein conjugates: generated by photobleaching the selenomerocyanine MC54 (26 μM) in the presence of an equimolar concentration of bovine serum albumin”, the Signs of toxicity [11] is reported as “None of the animals showed signs of acute or chronic toxicity” and the Survival [11] is reported as “All animals survived”.
